Test results as given in US20240165259A1, “BIOORTHOGONAL REACTION SUITABLE FOR CLICK/UNCLICK APPLICATIONS” (DANA-FARBER CANCER INSTITUTE, INC., priority 2021, published 2024).
Each block holds one compound with its values, some of them ahead of it.

What was measured:
[1] = system: cell surface HaloTag-GFP expressed on HEK293T cells; test: Live cell labeling experiment (confocal microscopy); type: cell-based; conditions: 10 μM 21′, then 10 μM 22′ for 1 hour, fixed
Protocol: Live cell labeling by hydroamination was explored. HEK293T cells were transiently transfected with a cell surface HaloTag-GFP construct, treated with 10 μM HaloTag linker-conjugated difluoropropargyl ether 21′, washed, and incubated with 10 μM TAMRA-conjugated hydroxylamine 22′ for 1 hour. The cells were then fixed and visualized by confocal microscopy.
Cell Culture: HEK-293T cells were cultured in Dulbecco's Modified Eagle Medium (DMEM, Corning®) containing 10% fetal bovine serum (FBS, Sigma), 100 units/mL penicillin, and 0.1 mg/mL streptomycin (Sigma) in a humidified chamber at 37° C. with 5% CO2. Cells were passaged and dissociated with 0.25% trypsin, 0.1% EDTA in HBSS (Corning®). Cells tested negative for […] by the MycoAlert PLUS Mycoplasma Detection Kit (Lonza) following the manufacturer's protocol.
Preparation for 12-Well Plate: Coverslips (15 mm circle, thickness 0.13-0.17 mm) were acid-washed according to the Cold Spring Harbor protocol (Fischer et al., Cold Spring Harb. Protoc. 2008:pdb.prot4988 (2008)). A coverslip was added to each well in a 12-well plate followed by an aqueous solution of poly-D-lysine (0.1 mg/mL, 30-70 kDa, 800 μL). The plate was gently shaken to distribute the solution evenly, incubated at room temperature for 1 hour, washed using 1 mL of autoclaved deionized water for each well, and dried overnight. […]

[2] = Cross reactivity: hydroxylamine with trans-cyclooctene 19, aldehyde 20, cyclopropene 21, alkyne 22; type: physicochemical
Protocol: The reaction mixtures were analyzed by ^1H NMR spectroscopy.

[3] = Cross reactivity: hydroxylamine under Cu-catalyzed azide-alkyne cycloaddition (CuAAC) conditions; type: physicochemical; conditions: alkyne S17, THPTA, CuSO4, sodium ascorbate, PBS pH 7.4, 0-4 hours, HPLC
Protocol: A solution of N,N-diethylhydroxylamine (0.8 μL, 100 mM in PBS, pH 7.4) was added to this mixture to bring the total volume to 200 μL. The solution was immediately transferred to a clean HPLC vial to monitor the reaction progress and incubated at room temperature in the dark. The reaction was analyzed by HPLC (Pursuit 200 Å C18, 4.6×150 mm, 10 μm particles, 1 mL/min flow rate, eluent: isocratic 0% MeCN/H2O+0.1% TFA (1 minute), gradient 0→100% MeCN/H2O+0.1% TFA (14 minutes), isocratic 100% MeCN/H2O+0.1% TFA (1 minute)) at each time point (0, 1, 2, and 4 hours) and quantified using its absorbance at 280 nm.

[4] = Cleavage reaction progress monitoring by 1H NMR spectroscopy; type: physicochemical; conditions: 4 mM enamine N-oxide, 10 mM B2(OH)4, 10% DMSO-d6/23% CD3OD/d-PBS, pH 7.4
Source text: Diboron reagents and enamine N-oxide structures in hand, the reaction kinetics were characterized and the substrate scope for the cleavage reaction was explored. A series of chromogenic probes 32″, 38″, 39″ featuring a representative series of nitrogen, oxygen, and sulfur-bearing leaving groups were obtained. Each probe was synthesized from cyclooct-2-ynol either by Mitsunobu reaction or carbamoylation with the corresponding p-nitro(thio)phenol or p-nitrophenyl isocyanate followed by hydroamination with N,N-diethylhydroxylamine. The formation of the intended products was verified by ^1H NMR spectroscopy with caffeine as an internal standard (FIG. 29A, FIG. 33, FIG. 34). […] Over the course of 24 h, iminium ion 35″ hydrolyzed to cyclooctenone 36″ and diethylamine 37″. The other substrates reacted analogously with the same quantitative formation of iminium ion 35″ at the initial time point (FIG. 29B). […]
The chromogenic probes that were prepared were intended for stopped flow kinetics experiments using UV-vis spectroscopy; however, the NMR studies precluded the use of one of these compounds for this purpose. […] Since a change in UV absorbance is contingent on p-nitroaniline formation, it could not be used or any analogous carbamate-based chromogenic or fluorogenic outputs as accurate proxies for product release. Instead, a fluorescence polarization assay was employed. […]

[5] = Retro-Cope elimination of linear alkynes 1′, 4′, 6′ with N,N-diethylhydroxylamine (Scheme 1); type: physicochemical; conditions: with N,N-diethylhydroxylamine (2′)
Protocol: The impact of inductively withdrawing halogen and chalcogen substituents at the propargylic and terminal positions of the alkyne were evaluated. Retro-Cope elimination reaction between propargyl ether 1′ and N,N-diethylhydroxylamine (2′) was completed in 18 hours whereas hydroamination of terminal alkyne 4′ was incomplete, even after 10 days. […] The regioselectivities induced by the propargyl and terminal alkyne substituents appeared to be reinforcing.

[6] = system: SK-BR-3 HER2+ breast cancer cells; test: Cell viability assay (CellTiter-Glo), SK-BR-3; type: cell-based; conditions: Homo sapiens, SK-BR-3, 72 h, read-out: IC50, cell viability, without diboron
Protocol: Cell viability assay: SK-BR-3 or MDA-MB-231 cell were seeded at a density of 5,000-10,000 cells per well in media [100 μL, RPMI (SK-BR-3) or DMEM (MDA-MB-231) supplemented with 5% heat-inactivated human serum (Sigma), penicillin (100 units/mL), streptomycin (0.1 mg/mL)] in an opaque 96-well plate. PBS (100 μL) was added to the edge wells. The cells were incubated at 37° C. under ambient atmosphere with 5% CO2. […] The plates were incubated at 37° C. with 5% CO2 for 72 h (SK-BR-3) or 96 h (MDA-MB-231). After the plates were equilibrated at room temperature, CellTiter-Glo™ 2.0 reagent (50 μL, Promega™) was added to each well and mixed gently. The plates were incubated at room temperature for 10 min to stabilize the luminescence signal and analyzed by a microplate reader (Clariostar Plus, BMG Labtech) (FIG. 48 and FIG. 49).

[7] = system: MDA-MB-231 HER2− breast cancer cells; test: Cell viability assay (CellTiter-Glo), MDA-MB-231; type: cell-based; conditions: Homo sapiens, MDA-MB-231, 96 h, read-out: IC50, cell viability, without diboron
Protocol: SK-BR-3 cells were treated with […]-100 nM trastuzumab-MMAE 61″ in the presence or absence of 50 μM B2pin2, cultured for 72 h, and assayed using the CellTiter-Glo® cell viability assay. The IC50 of the ADC was insensitive to the presence or absence of diboron and recapitulated the IC50 of MMAE alone.
This N-oxide-based drug delivery platform provides a convenient mechanism for loading drugs onto antibodies as well as an appealing alternative to existing methods for the fast and complete release of drug molecules from their carriers.
Cell culture: Cells were cultured in RPMI (SK-BR-3) or DMEM (MDA-MB-231) containing 10% FBS (Sigma), 100 units/mL penicillin, and 0.1 mg/mL streptomycin (Sigma) in a humidified chamber at 37° C. under an ambient atmosphere with 5% CO2. Cells were passaged and dissociated with 0.25% trypsin, 0.1% EDTA in HBSS (Corning). […]
Cell viability assay: SK-BR-3 or MDA-MB-231 cell were seeded at a density of 5,000-10,000 cells per well in media [100 μL, RPMI (SK-BR-3) or DMEM (MDA-MB-231) supplemented with 5% heat-inactivated human serum (Sigma), penicillin (100 units/mL), streptomycin (0.1 mg/mL)] in an opaque 96-well plate. […] The plates were incubated at room temperature for 10 min to stabilize the luminescence signal and analyzed by a microplate reader (Clariostar Plus, BMG Labtech) (FIG. 48 and FIG. 49).

[8] = molecular target: T1, lysozyme-TAMRA conjugate 6″conj (Gallus gallus, UniProt P00698); test: Screening of diboron derivatives 27″-31″ for cleavage of conjugate 6″conj; type: biochemical; conditions: PBS, 1 h
T1 construct: purchased
T1 sequence (P00698 19-147): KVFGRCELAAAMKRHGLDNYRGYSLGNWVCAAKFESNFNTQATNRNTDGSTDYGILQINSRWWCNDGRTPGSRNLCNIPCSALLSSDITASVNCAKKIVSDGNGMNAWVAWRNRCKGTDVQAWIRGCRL
Protocol: The impact of boron ligands on the dissociation reaction was also explored. […] Lysozyme-TAMRA conjugate 6″conj was treated with 5 or 50 μM of each diboron reagent in PBS and analyzed by in-gel fluorescence after 1 h.
A solution of diborons 27″-31″ (0.34 μL, 125 μM or 1.25 mM in DMSO; 5 or 50 μM final concentration) was added to a solution of lysozyme-fluorophore conjugate 6″conj (8 μL, 0.50 μM in PBS, pH 7.4). The reaction mixtures were incubated at room temperature in the dark. After 60 min, each reaction mixture was quenched by adding trimethylamine N-oxide (0.93 uL, 100 mM in H2O; 10 mM final concentration) and diluted with 1.6×SDS sample buffer (14.32 μL). Each solution (10 μL) was loaded onto a 15-well 12% SDS-PAGE gel. The gel was run at room temperature and at 175 V for 50 min. In-gel fluorescence was imaged with a Typhoon™ FLA 9500 (GE) at 532 nm with a photomultiplier tube (PMT) setting of 500 V (FIG. 41).

SMILES: O=C(NCCOCCOCCCCCCCl)OCCOC(F)(F)C#CCl [21′, 2-((3-chloro-1,1-difluoroprop-2-yn-1-yl)oxy)ethyl (2-(2-((6-chlorohexyl)oxy)ethoxy)ethyl)carbamate]
live cell labeling (TAMRA signal) [1]: localized at the cell surface and co-localized with the GFP signal of transfected cells

SMILES: CCN(O)CC [compound 1, N,N-diethylhydroxylamine]
reactivity with strained alkenes ([2]; 5 mM hydroxylamine with 5 mM cyclopropene 21 or trans-cyclooctene 19, d3-acetonitrile): proved unreactive
cross-reactivity with 19, 20, 21 or 22 ([2]; CD3CN, 1 hour, room temperature, 1H NMR): No change in the spectra was observed
reaction under CuAAC conditions [3]: No reaction was observed

SMILES: CC[N+]([O-])(CC)/C1=C/C(Sc2ccc([N+](=O)[O-])cc2)CCCCC1 (stereo not shown) [38″, (E)-N,N-Diethyl-3-((4-nitrophenyl)thio)cyclooct-1-en-1-amine oxide]
time to complete reduction / conversion of enamine N-oxide [4]: ≤ 4 min

SMILES: OCCCCCC#CCl [6′, 7-chlorohept-6-yn-1-ol]
time to completion of retro-Cope elimination [5]: ~24 h

SMILES: CC[C@H](C)[C@@H]([C@@H](CC(=O)N1CCCC1[C@H](OC)[C@@H](C)C(=O)N[C@H](C)[C@@H](O)c1ccccc1)OC)N(C)C(=O)[C@@H](NC(=O)[C@@H](NC)C(C)C)C(C)C (stereo partly shown) [MMAE, monomethyl auristatin E]
IC50 [6]: 0.154 nM
IC50 [7]: 0.75 nM

SMILES: CC[N+]([O-])(CC)/C1=C/C(Oc2ccc([N+](=O)[O-])cc2)CCCCC1 (stereo not shown) [32″, (E)-N,N-Diethyl-3-(4-nitrophenoxy)cyclooct-1-en-1-amine oxide]
time to complete reduction / conversion of enamine N-oxide [4]: ≤ 4 min

cleavage of 6″conj at 5 μM diboron reagent [8]: reach completion by 1 h
SMILES: OB(O)B(O)O [Tetrahydroxydiboron, tetrahydroxydiboron]
